Measured values from patent publication US20260159536A1, “AKR1C3-ACTIVATED DNA ALKYLATING AGENT, AND MEDICAL APPLICATION THEREOF” (ASCENTAWITS PHARMACEUTICALS, LTD., priority 2021, published 2026).
Where two headings read alike, the source gives them in different places.

Legend:
H460 cells = experiment: Inhibition of H460 cancer cell proliferation (CTG, 72 h); format: cell-based; details: Homo sapiens, NCI-H460
Protocol: If not otherwise specified, IC50 values were measured by the following experimental methods:
c) The cell suspension was added to 96-well plate with 100 μL per well and 2000 cells/well of cell density.
a) Cells were plated for 24 hours, and then the compounds acted singly. 99 μL of growth medium was supplemented per well, and then 1 μL of 200× compound was added, gently shaken to ensure uniform mixing, and then placed in a 37° C., 5% CO2 incubator.
b) The cell plate was placed in the incubator for 72 hours.
b) 100 μL of CTG reagent (CelltiterGlo kit) was added to each well, the plate was placed in a rapid oscillator and shaken for 2 minutes, and then placed at room temperature for 30 minutes away from light.
c) The chemiluminescence signal value was read with Envision instrument.
The IC50 was calculated using GraphPad Prism 8 software and the IC50 (half inhibitory concentration) of the compounds was obtained using the following non-linear fitting formula: […]

H460 cancer cells = experiment: H460 proliferation in the presence or absence of AKR1C3 inhibitor AST-3021 (Alamar Blue); format: cell-based, human; details: for IC50: Homo sapiens, NCI-H460, H460, 2 hours exposure
Protocol: (§1) The tested compound was then added. The compound was dissolved in 100% DMSO at 200 times of the desired final test concentration. When the medicament was added, the compound was further diluted to 4 times of the desired final test concentration by using the complete medium. 50 μL of aliquots of the compound with specific concentration were added to the microwells containing 150 μL of medium, and then the final medicament concentration was obtained. […] The medicament was then washed. […] After the incubation was finished, the Alamar Blue was used to analyze and quantify the living cells.

NCI-H1944 = experiment: AKR1C3-dependent cytotoxicity, NSCLC cell line NCI-H1944; format: cell-based; details: Homo sapiens
Protocol: as §1

NCIH1755 = experiment: AKR1C3-dependent cytotoxicity, NSCLC cell line NCIH1755; format: cell-based; details: Homo sapiens, NCI-H1755
Protocol: as §1

NCI-H1563 = experiment: AKR1C3-dependent cytotoxicity, NSCLC cell line NCI-H1563; format: cell-based; details: Homo sapiens
Protocol: as §1

CAL12T = experiment: AKR1C3-dependent cytotoxicity, NSCLC cell line CAL12T; format: cell-based; details: Homo sapiens, CAL-12T
Protocol: as §1

NCIH2106 = experiment: AKR1C3-dependent cytotoxicity, NSCLC cell line NCIH2106; format: cell-based
Protocol: as §1

NCI-H522 = experiment: AKR1C3-dependent cytotoxicity, NSCLC cell line NCI-H522; format: cell-based; details: Homo sapiens
Protocol: as §1

[1] = test system: HuPrime model LI6643 human liver cancer; experiment: In vivo pharmacodynamics, liver cancer LI6643 PDX model (Compound A, Sorafenib, AST-3424; section 4.7); set-up: species or system BALB/c nude mice; details: for Tumor volume (x ± S): in mm³
Protocol: Experiment Instruction: BALB/c nude mice were subcutaneously inoculated with HuPrime® model LI6643 tumor blocks to establish a subcutaneous grafted tumor model of human liver cancer. […] The efficacy was evaluated according to the relative tumor inhibition rate TGI (%), and the safety was evaluated according to the change in body weight and the death of the animals.

P-gp = biological target: T1, P-gp (Homo sapiens, UniProt P08183); experiment: P-gp substrate evaluation, MDCKII-MDR1 penetration test with or without Verapamil; format: in vitro ADME
T1 construct: expressed in transfected cells; host or cells: MDCKII-MDR1 cells
Protocol: The conditions of the incubator were set as 37° C., 5% CO2, and 95% of the relative humidity.
After that, the MDCKII-MDR1 cells can be used for the penetration test.
(1) MDCKII-MDR1 transwell culture plate was taken out from the incubator.
(6) The upper and lower transportations were pooled and then incubated at 37° C. for 2 h.
After the sample tubes were vortexed for 10 min, and centrifuged at 3220 g for 30 min. […] Each sample was adopted to the three parallel incubation.
Efflux Ratio was calculated by the following formula: […]
Recovery was calculated by the following formula: […]

[2] = Liver microsome stability, rat; format: in vitro ADME; details: Rat liver microsomes; with the addition of NADPH
Protocol: 1) Two individual experiments were performed.
All experiments were performed in duplicate.

[3] = 0.3 mg/kg i.v. QDx5, 2 days off, 2 weeks off, QDx5, Day 21
[4] = 1.25 mg/kg i.v. QWx2, 1 week off, QWx2, Day 21
[5] = AST-3424 1 mg/kg i.v. QDx5, 2 days off, 2 weeks off, QDx5, Day 21

T1 sequence (P08183 whole entry): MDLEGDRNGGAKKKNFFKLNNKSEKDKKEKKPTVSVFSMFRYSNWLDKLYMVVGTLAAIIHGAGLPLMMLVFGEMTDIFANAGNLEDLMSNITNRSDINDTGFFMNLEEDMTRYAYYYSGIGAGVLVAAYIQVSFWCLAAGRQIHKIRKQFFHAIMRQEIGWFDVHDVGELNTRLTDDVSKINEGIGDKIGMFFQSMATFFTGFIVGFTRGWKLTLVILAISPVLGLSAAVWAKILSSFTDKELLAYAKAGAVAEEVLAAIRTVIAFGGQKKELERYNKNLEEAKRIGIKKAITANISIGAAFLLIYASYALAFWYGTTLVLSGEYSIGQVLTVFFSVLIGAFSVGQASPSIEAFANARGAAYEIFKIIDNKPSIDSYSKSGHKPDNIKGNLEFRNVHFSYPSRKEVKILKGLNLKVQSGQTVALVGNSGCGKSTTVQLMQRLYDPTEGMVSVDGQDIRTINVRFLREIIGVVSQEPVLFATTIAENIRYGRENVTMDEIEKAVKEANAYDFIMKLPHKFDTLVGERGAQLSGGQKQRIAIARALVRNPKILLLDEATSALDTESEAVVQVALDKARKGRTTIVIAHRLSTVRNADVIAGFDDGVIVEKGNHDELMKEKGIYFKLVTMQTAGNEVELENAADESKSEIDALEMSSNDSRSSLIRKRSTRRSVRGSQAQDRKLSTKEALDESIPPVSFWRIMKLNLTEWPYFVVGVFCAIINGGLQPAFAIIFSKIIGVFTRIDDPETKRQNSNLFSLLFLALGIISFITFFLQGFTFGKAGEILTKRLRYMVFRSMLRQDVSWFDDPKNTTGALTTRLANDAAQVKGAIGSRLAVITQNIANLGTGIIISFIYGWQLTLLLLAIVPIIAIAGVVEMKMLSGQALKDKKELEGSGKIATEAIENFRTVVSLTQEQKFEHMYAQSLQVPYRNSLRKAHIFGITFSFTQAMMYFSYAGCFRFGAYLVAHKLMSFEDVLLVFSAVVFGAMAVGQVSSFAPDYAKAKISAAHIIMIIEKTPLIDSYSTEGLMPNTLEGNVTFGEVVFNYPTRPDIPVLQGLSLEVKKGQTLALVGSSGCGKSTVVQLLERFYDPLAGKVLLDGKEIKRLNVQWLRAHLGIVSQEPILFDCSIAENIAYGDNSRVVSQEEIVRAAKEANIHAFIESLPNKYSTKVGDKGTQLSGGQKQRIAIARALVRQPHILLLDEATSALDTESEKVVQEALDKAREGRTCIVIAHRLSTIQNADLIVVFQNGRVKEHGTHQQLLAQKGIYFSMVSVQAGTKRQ

C[C@@H](OP(=O)(N1CC1)N1CC1)c1ccc([N+](=O)[O-])c(Oc2cccc(C(=O)N(C)C)c2)c1 [AST-3424]
IC50 (H460 cells): 0.11 nM
IC50 (H460 cancer cells; AST-3021 3 micromolar, read-out: IC50 With the addition of AST-3021): 44.9 nM
IC50 (H460 cancer cells; no AKR1C3 inhibitor, read-out: IC50 Without the addition of AST-3021): 0.349 nM
Fold (H460 cancer cells; IC50 with AST-3021 over IC50 without): 128.71
IC50 (NCI-H1944): 2.3 nM
IC50 (NCIH1755): 8.2 nM
IC50 (NCI-H1563): 2.5 nM
IC50 (CAL12T): 29.1 nM
IC50 (NCIH2106): > 1000 nM
IC50 (NCI-H522): > 1000 nM
Relative tumor volume (x ± S) [1, 3]: 1.92 ± 0.2
T/C (%) [1, 3]: 39.84%
TGI (%) [1, 3]: 60.16%
Tumor volume (x ± S) [1, 3]: 250.47 ± 44.00
Tumor volume ([1]; 0.3 mg/kg i.v., Day 0): 124.74 mm^3
Tumor volume ([1]; 0.3 mg/kg i.v., Day 3): 210.50 mm^3
Tumor volume ([1]; 0.3 mg/kg i.v., Day 7): 242.31 mm^3
Tumor volume ([1]; 0.3 mg/kg i.v., Day 10): 227.43 mm^3
Tumor volume ([1]; 0.3 mg/kg i.v., Day 14): 208.00 mm^3
Tumor volume ([1]; 0.3 mg/kg i.v., Day 17): 223.43 mm^3
Tumor volume ([1]; 0.3 mg/kg i.v., Day 21): 250.47 mm^3
Tumor volume ([1]; 0.3 mg/kg i.v., Day 24): 302.15 mm^3
Tumor volume ([1]; 0.3 mg/kg i.v., Day 28): 386.93 mm^3
Relative tumor volume (x ± S) [1, 4]: 1.36 ± 0.22
T/C (%) [1, 4]: 28.14%
TGI (%) [1, 4]: 71.86%
Tumor volume (x ± S) [1, 4]: 169.64 ± 41.89
Tumor volume ([1]; 1.25 mg/kg i.v., Day 0): 124.62 mm^3
Tumor volume ([1]; 1.25 mg/kg i.v., Day 3): 205.56 mm^3
Tumor volume ([1]; 1.25 mg/kg i.v., Day 7): 217.23 mm^3
Tumor volume ([1]; 1.25 mg/kg i.v., Day 10): 216.04 mm^3
Tumor volume ([1]; 1.25 mg/kg i.v., Day 14): 187.94 mm^3
Tumor volume ([1]; 1.25 mg/kg i.v., Day 17): 176.52 mm^3
Tumor volume ([1]; 1.25 mg/kg i.v., Day 21): 169.64 mm^3
Tumor volume ([1]; 1.25 mg/kg i.v., Day 24): 174.54 mm^3
Tumor volume ([1]; 1.25 mg/kg i.v., Day 28): 146.31 mm^3
Relative tumor volume (x ± S) [1, 5]: 0.66 ± 0.22
T/C (%) [1, 5]: 13.68%
TGI (%) [1, 5]: 86.32%
Tumor volume (x ± S) [1, 5]: 75.89 ± 21.82
Tumor volume ([1]; AST-3424 1 mg/kg i.v., Day 0): 124.32 mm^3
Tumor volume ([1]; AST-3424 1 mg/kg i.v., Day 3): 156.70 mm^3
Tumor volume ([1]; AST-3424 1 mg/kg i.v., Day 7): 144.82 mm^3
Tumor volume ([1]; AST-3424 1 mg/kg i.v., Day 10): 110.44 mm^3
Tumor volume ([1]; AST-3424 1 mg/kg i.v., Day 14): 90.12 mm^3
Tumor volume ([1]; AST-3424 1 mg/kg i.v., Day 17): 97.62 mm^3
Tumor volume ([1]; AST-3424 1 mg/kg i.v., Day 21): 75.89 mm^3
Tumor volume ([1]; AST-3424 1 mg/kg i.v., Day 24): 89.34 mm^3
Tumor volume ([1]; AST-3424 1 mg/kg i.v., Day 28): 98.43 mm^3
P-gp substrate (P-gp; MDCKII-MDR1, with and without Verapamil): Pgp substrate
Papp A→B at 2 h (P-gp; dog, MDCK-MDR1): 1.95 ×10⁻⁶ cm/s
Papp B→A at 2 h (P-gp; dog, MDCK-MDR1): 34.5 ×10⁻⁶ cm/s
recovery at 2 h (P-gp; dog, MDCK-MDR1, Verapamil 0 μM, read-out: Recovery (%) AP-BL): 79.1%
recovery at 2 h (P-gp; dog, MDCK-MDR1, Verapamil 0 μM, read-out: Recovery (%) BL-AP): 90.6%
recovery at 2 h (P-gp; dog, MDCK-MDR1, with Verapamil 100 μM, Verapamil 100 μM, read-out: Recovery (%) AP-BL): 92.6%
recovery at 2 h (P-gp; dog, MDCK-MDR1, with Verapamil 100 μM, Verapamil 100 μM, read-out: Recovery (%) BL-AP): 96.3%
Percentage remaining after 30 minutes [2]: 8.79%
